The values that follow come from PMC10813753 (Biology, 2024).

In assay [1] the test system is G4 Tel22 telomeric quadruplex DNA. As to the kind of experiment: Equilibrium dialysis (non-competition and competition), Tel22. Format: binding, human. The settings on record: for Kapp (Tel22): 10 mM potassium phosphate, 100 mM KCl, pH 7.2. The procedure:
Equilibrium dialysis experiments were conducted with unlabeled quadruplex DNA and/or with dsDNA sequences as previously reported. G4 sequence Tel22 is 5′-A(GGGTTA)3GGG-3′, and ds17 is 5′-GGG TTA CTA CGA ACT GG-3′/5′-CCA GTT CGT AGT AAC CC-3′. The buffering system employed contained 10 mM potassium phosphate buffer and 100 mM of KCl (pH = 7.2). DNA solution concentrations were determined at 90 °C through UV-visible spectrophotometry using the λmax values and extinction coefficients provided by IDT®. Extinction coefficients of TSC ligand 1 were calculated in water and in buffer in the absence and in the presence of 1% (w/v) triton X-100. Competition and non-competition dialysis experiments were carried out using the protocol described by Chaires, with minor modifications. Dialysis bags (Biotech Regenerated Cellulose (RC) membrane, part number 133192, Spectrum Laboratories, Inc., Fisher, Madrid, Spain) with a 0.2 mL volume were used, with G4 Tel22 or duplex ds17 DNA at a concentration of 75 μM, in monomeric units. The dialysis bags were placed in a beaker containing 200 mL of a solution of compound 1 (2 μM) in buffer. The beaker was sealed with Parafilm, and the solution was allowed to equilibrate at room temperature (22 °C) for 24 h with continuous stirring. Then, the contents of the dialysis bags were transferred into microcentrifuge tubes, and triton X-100 was added (1% (w/v) final concentration). After 2 h equilibration at room temperature, the total concentration of the ligand (Ct) was determined using UV-visible spectroscopy. The concentration of free compound 1 (Cf) was also determined spectrophotometrically from the dialysate solution. The concentration of the DNA-bound compound (Cb) was then calculated using the equation Cb = Ct − Cf, and Kapp was determined.
Assays were performed at room temperature with ~2 μM solutions of 1, equilibrated with 75 μM (in monomeric units, tetrads or base pairs, respectively) of the tested DNA sequence for 24 h, in a buffer containing 100 mM KCl. Afterwards, the surfactanct triton X-100 was added to the solutions contained in the dialysis bags, and the recording of the UV-visible spectra was used to determine the concentrations of free and DNA-bound ligands for each situation: Tel22, ds17 or competition experiment Tel22-ds17. The concentration of DNA-bound ligand was determined based on at least two different experiments performed in duplicate or triplicate. […]
On the technique in general: Equilibrium dialysis compares concentrations on both sides of a semipermeable membrane.

Assay [2] relates to HT29 cells (colorectal). As to the kind of experiment: MTT viability assay HT29. As to conditions: 72 h. Format: cell-based, human. Here is the method: A panel of five tumor cell lines and two normal cell lines was used to preliminarily test the cytotoxicity of compounds 1–4, and the experiments were conducted as previously reported. All human cell lines were acquired from American Type Culture Collection (ATCC): tumor PC-3 and DU145 (prostate), HeLa (cervix), MCF7 (breast) and HT29 (colorectal) and healthy HFF-1 (fibroblast) and RWPE-1 (prostate). The cell catalogue reference and culture media used in the experiments were CRL-1435^TM, RPMI (PC-3), HTB-81™, RPMI (DU145), CCL-2^TM, DMEM (HeLa), HTB-22^TM, DMEM (MCF-7), HTB-38^TM, modified McCoy’s 5a medium, Catalogue No. 30-2007 (HT29), SCRC-1041^TM, DMEM (HFF-1) and CRL-11609^TM, Keratinocyte-SFM (RWPE-1). Culture media were purchased from Merck: RPMI-1640, DMEM + 10% FBS (Fetal Bovine Serum) + […] (penicillin/streptomycin/amphotericin B). Media and supplements for RWPE-1 were from ThermoFisher (17005075, Madrid, Spain). MCF7 cells were additionally supplemented with insulin (0.001 mg/mL in 500 mL media). Cells were kept at 37 °C (5% CO2), and culture media were renewed three times per week. When the cells reached 80–100% confluence, they were trypsinized and centrifuged, and the concentration was adjusted to each experiment. Cells were seeded at a density of ~10,000 cells/well into 24-well plates. The cells were treated with ligands 1–4 or the cytotoxic agents PhenQE8, PhenDC3 or cisplatin at different concentrations (10 nM–100 μM). Compound solutions were freshly prepared using the appropriate culture medium. Triplicate experiments were run. For MTT viability assays, after 72 h incubation, 50 μL of MTT (5 mg/mL) was added, and an additional incubation of 4 h was allowed. The medium in each well was then replaced by DMSO, and the absorbance was measured at 570 nm using an ELISA plate reader. Absorbances were normalized using negative controls (untreated cells, in triplicate, with a maximum of 0.9% DMSO content). […] IC50 values were determined using Kaleidagragh^TM (3.52) software by adjusting the data to Equation 1/(1 + 10^(m2*(log(m1) − x))); m1 = 0.000003; m2 = 1.
Background: Tetrazolium assays rely on reduction of a dye to a coloured formazan, in cell work by metabolically active cells.

One may read the IC50 as the concentration at which inhibition is half-maximal. Higher therefore signals weaker potency in that assay. On to “2,2′-(1,10-Phenanthroline-2,9-diyl)-bis(methylene)-bis(hydrazine-1-carbothioamide) [compound 1]”, for which the “Kapp (Tel22)” value in assay [1] (competition dialysis (1 + Tel22 + ds17)) is reported as 1.2 ± 0.1 (M^−1) × 10^−5; in assay [1] (non-competition dialysis (1 + Tel22), apparent association constant, order 10^5 M^−1) it was 1.1 ± 0.1 (M^−1) × 10^−5. In addition, in assay [1] (competitive assay), the “binding selectivity Kapp (Tel22)/Kapp (ds17)” value was around 24 fold. Also, in assay [1] (order of magnitude, equilibrium dialysis), the “apparent association constant to telomeric quadruplex” value is ~10^5 M^−1. In assay [2], this substance displayed a concentration for half-maximal inhibition (IC50) above 100 µM.
